{"source": "patent US10610520B2", "about": "“Heterocyclic compound” (Takeda Pharmaceutical Company Limited, priority 2016, dated 2020)", "target": "T1, His-hMAGL (recombinant polyhistidine tagged human MAGL protein) (Homo sapiens, UniProt Q99685)", "T1 construct": "made in house; host or cells: E. coli BL21(DE3)", "T1 sequence (Q99685 1-303)": "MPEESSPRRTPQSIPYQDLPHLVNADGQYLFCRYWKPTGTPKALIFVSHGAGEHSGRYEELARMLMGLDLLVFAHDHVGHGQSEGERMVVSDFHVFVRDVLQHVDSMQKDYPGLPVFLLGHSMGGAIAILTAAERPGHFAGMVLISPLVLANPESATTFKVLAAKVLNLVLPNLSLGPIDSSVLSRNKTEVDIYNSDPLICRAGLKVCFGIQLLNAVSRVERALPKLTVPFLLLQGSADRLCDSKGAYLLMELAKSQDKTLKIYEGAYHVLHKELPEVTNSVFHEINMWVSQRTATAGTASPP", "assay": "Measurement of MAGL inhibitory activity (arachidonic acid production from 2-arachidonylglycerol, RapidFire-mass spectrometry)", "format": "biochemical", "conditions": "MAGL inhibitory rate, test compound 10 μM, 60 min preincubation, 2-arachidonylglycerol substrate", "how_it_was_run": "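Arachidonic acid formed was quantified by online solid-phase extraction and triple-quadrupole MS in negative SRM mode against a d8 internal standard. Reaction: recombinant His-hMAGL (7.5 ng/mL, pH 7.5 Tris buffer with Triton X-100 and BSA) plus 2-AG (5 μL of 150 μM stock) for 10 min at room temperature, quenched with 2% formic acid. Percent inhibition corrected for enzyme-free background.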"}
{"smiles": "Cc1cc2c(Cl)c(C(=O)N3CC4(COC(=O)N4)C3)sc2cc1OC(F)(F)F", "note": "[Example 295, 2-((3-chloro-5-methyl-6-(trifluoromethoxy)-1-benzothiophen-2-yl)carbonyl)-7-oxa-2,5-diazaspiro[3.4]octan-6-one]", "values": [{"measurement": "inhibition at 10 µM", "result": 101, "unit": "%"}]}
{"smiles": "Cc1cc(C(F)(F)F)cc2sc(C(=O)N3CCC4(COC(=O)N4)C3)c(Cl)c12", "note": "(stereo not shown) [Example 341, 7-((3-chloro-4-methyl-6-(trifluoromethyl)-1-benzothiophen-2-yl)carbonyl)-3-oxa-1,7-diazaspiro[4.4]nonan-2-one]", "values": [{"measurement": "inhibition at 10 µM", "result": 100, "unit": "%"}]}
{"smiles": "O=C1CCC2(CN(C(=O)c3ccc(-c4cc(C(F)(F)F)cc(C(F)(F)F)c4)cc3)C2)N1", "note": "[Example 48, 2-((3′,5′-bis(trifluoromethyl)biphenyl-4-yl)carbonyl)-2,5-diazaspiro[3.4]octan-6-one]", "values": [{"measurement": "inhibition at 10 µM", "result": 98, "unit": "%"}]}
{"smiles": "O=C1CCC2(CN(C(=O)c3ccc4scc(-c5ccc(F)cc5)c4c3)C2)N1", "note": "[Example 175, 2-((3-(4-fluorophenyl)-1-benzothiophen-5-yl)carbonyl)-2,5-diazaspiro[3.4]octan-6-one]", "values": [{"measurement": "inhibition at 10 µM", "result": 88, "unit": "%"}]}
{"smiles": "O=C1CCC2(CN(C(=O)c3sc4cc(OC(F)(F)F)ccc4c3C(F)F)C2)N1", "note": "[Example 265, 2-((3-(difluoromethyl)-6-(trifluoromethoxy)-1-benzothiophen-2-yl)carbonyl)-2,5-diazaspiro[3.4]octan-6-one]", "values": [{"measurement": "inhibition at 10 µM", "result": 97, "unit": "%"}]}
{"smiles": "O=C1CCC2(CN(C(=O)c3ccc(-c4ccc(F)c(F)c4F)cc3)C2)N1", "note": "[Example 69, 2-((2′,3′,4′-trifluorobiphenyl-4-yl)carbonyl)-2,5-diazaspiro[3.4]octan-6-one]", "values": [{"measurement": "inhibition at 10 µM", "result": 97, "unit": "%"}]}
{"smiles": "O=C1NC2(CO1)CN(C(=O)c1sc3cc(OC(F)(F)F)c(C(F)F)cc3c1Cl)C2", "note": "[Example 306, 2-((3-chloro-5-(difluoromethyl)-6-(trifluoromethoxy)-1-benzothiophen-2-yl)carbonyl)-7-oxa-2,5-diazaspiro[3.4]octan-6-one]", "values": [{"measurement": "inhibition at 10 µM", "result": 100, "unit": "%"}]}
{"smiles": "O=C1NC2(CO1)CN(C(=O)c1sc3cc(OC(F)(F)F)cc(Cl)c3c1Cl)C2", "note": "[Example 293, 2-((3,4-dichloro-6-(trifluoromethoxy)-1-benzothiophen-2-yl)carbonyl)-7-oxa-2,5-diazaspiro[3.4]octan-6-one]", "values": [{"measurement": "inhibition at 10 µM", "result": 101, "unit": "%"}]}
{"smiles": "CC(C)(C)c1cccc(-c2ccc(C(=O)N3CC4(CCC(=O)N4)C3)cc2)c1", "note": "[Example 55, 2-((3′-tert-butylbiphenyl-4-yl)carbonyl)-2,5-diazaspiro[3.4]octan-6-one]", "values": [{"measurement": "inhibition at 10 µM", "result": 101, "unit": "%"}]}
{"smiles": "O=C1CCC2(CN(C(=O)c3sc4cc(OC(F)(F)F)ccc4c3Cl)C2)N1", "note": "[Example 176, 2-((3-chloro-6-(trifluoromethoxy)-1-benzothiophen-2-yl)carbonyl)-2,5-diazaspiro[3.4]octan-6-one]", "values": [{"measurement": "inhibition at 10 µM", "result": 99, "unit": "%"}]}
{"smiles": "O=C1NC2(CO1)CN(C(=O)c1ccc(-c3cccc(C4(C(F)(F)F)CC4)c3)cc1)C2", "note": "[Example 344, 2-((3′-(1-(trifluoromethyl)cyclopropyl)biphenyl-4-yl)carbonyl)-7-oxa-2,5-diazaspiro[3.4]octan-6-one]", "values": [{"measurement": "inhibition at 10 µM", "result": 99, "unit": "%"}]}
{"smiles": "O=C1CCC2(CN(C(=O)c3ccc(-c4ccccc4)cc3Cl)C2)N1", "note": "[Example 117, 2-((3-chlorobiphenyl-4-yl)carbonyl)-2,5-diazaspiro[3.4]octan-6-one]", "values": [{"measurement": "inhibition at 10 µM", "result": 81, "unit": "%"}]}
{"smiles": "Cc1c(F)ccc(F)c1-c1ccc(C(=O)N2CC3(CCC(=O)N3)C2)cc1", "note": "[Example 91, 2-((3′,6′-difluoro-2′-methylbiphenyl-4-yl)carbonyl)-2,5-diazaspiro[3.4]octan-6-one]", "values": [{"measurement": "inhibition at 10 µM", "result": 90, "unit": "%"}]}
{"smiles": "O=C1CCC2(CN(C(=O)c3ccc(-c4cc(F)c(F)c(F)c4)cc3)C2)N1", "note": "[Example 68, 2-((3′,4′,5′-trifluorobiphenyl-4-yl)carbonyl)-2,5-diazaspiro[3.4]octan-6-one]", "values": [{"measurement": "inhibition at 10 µM", "result": 93, "unit": "%"}]}
{"smiles": "O=C1CCC2(CN(C(=O)N3CCC(Cc4ccc(N5CCCCC5)cc4)CC3)C2)N1", "note": "[Example 111, 2-((4-(4-(piperidin-1-yl)benzyl)piperidin-1-yl)carbonyl)-2,5-diazaspiro[3.4]octan-6-one]", "values": [{"measurement": "inhibition at 10 µM", "result": 101, "unit": "%"}]}
{"smiles": "O=C1CCC2(CN(C(=O)c3ccc(-c4coc5ccccc45)cc3)C2)N1", "note": "[Example 66, 2-(4-(1-benzofuran-3-yl)benzoyl)-2,5-diazaspiro[3.4]octan-6-one]", "values": [{"measurement": "inhibition at 10 µM", "result": 98, "unit": "%"}]}
{"smiles": "O=C1CCC2(CN(C(=O)c3cc4ccc(OCc5ccc(Cl)cc5Cl)cc4s3)C2)N1", "note": "[Example 145, 2-((6-((2,4-dichlorobenzyl)oxy)-1-benzothiophen-2-yl)carbonyl)-2,5-diazaspiro[3.4]octan-6-one]", "values": [{"measurement": "inhibition at 10 µM", "result": 87, "unit": "%"}]}
{"smiles": "O=C1CCC2(CN(C(=O)N3CCC(Cc4ccc(Cl)cc4)CC3)C2)N1", "note": "[Example 99, 2-((4-(4-chlorobenzyl)piperidin-1-yl)carbonyl)-2,5-diazaspiro[3.4]octan-6-one]", "values": [{"measurement": "inhibition at 10 µM", "result": 100, "unit": "%"}]}
{"smiles": "O=C1CCC2(CN(C(=O)N3CCC(Cc4ccccc4F)CC3)C2)N1", "note": "[Example 96, 2-((4-(2-fluorobenzyl)piperidin-1-yl)carbonyl)-2,5-diazaspiro[3.4]octan-6-one]", "values": [{"measurement": "inhibition at 10 µM", "result": 101, "unit": "%"}]}
{"smiles": "O=C1NC2(CCN(C(=O)c3sc4cc(Cl)cc(Cl)c4c3Cl)C2)CO1", "note": "(stereo not shown) [Example 327, 7-((3,4,6-trichloro-1-benzothiophen-2-yl)carbonyl)-3-oxa-1,7-diazaspiro[4.4]nonan-2-one]", "values": [{"measurement": "% inhibition (10 μM)", "setting": "10 µM", "result": 99, "unit": "%"}]}
{"smiles": "O=C1NC2(CCN(C(=O)c3sc4cc(C(F)(F)F)ccc4c3Cl)C2)CO1", "note": "(stereo not shown) [Example 365, 7-((3-chloro-6-(trifluoromethyl)-1-benzothiophen-2-yl)carbonyl)-3-oxa-1,7-diazaspiro[4.4]nonan-2-one]", "values": [{"measurement": "inhibition at 10 µM", "result": 100, "unit": "%"}]}
{"smiles": "Cc1cscc1-c1ccc2c(Cl)c(C(=O)N3CC4(CCC(=O)N4)C3)sc2c1", "note": "[Example 236, 2-((3-chloro-6-(4-methyl-3-thienyl)-1-benzothiophen-2-yl)carbonyl)-2,5-diazaspiro[3.4]octan-6-one]", "values": [{"measurement": "inhibition at 10 µM", "result": 100, "unit": "%"}]}
{"smiles": "Cc1c(C(=O)N2CC3(CCC(=O)N3)C2)sc2ccc([N+](=O)[O-])cc12", "note": "[Example 151, 2-((3-methyl-5-nitro-1-benzothiophen-2-yl)carbonyl)-2,5-diazaspiro[3.4]octan-6-one]", "values": [{"measurement": "inhibition at 10 µM", "result": 93, "unit": "%"}]}
{"smiles": "O=C1CCC2(CN(C(=O)c3ccc(-c4ccc5c(c4)CCO5)cc3)C2)N1", "note": "[Example 95, 2-(4-(2,3-dihydro-1-benzofuran-5-yl)benzoyl)-2,5-diazaspiro[3.4]octan-6-one]", "values": [{"measurement": "inhibition at 10 µM", "result": 94, "unit": "%"}]}
{"smiles": "O=C1CCC2(CN(C(=O)c3ccc(-c4cccc(Cl)c4)cc3)C2)N1", "note": "[Example 86, 2-((3′-chlorobiphenyl-4-yl)carbonyl)-2,5-diazaspiro[3.4]octan-6-one]", "values": [{"measurement": "inhibition at 10 µM", "result": 97, "unit": "%"}]}
{"smiles": "O=C1CCC2(CN(C(=O)N3CC(OCc4ccc(C(F)(F)F)cc4F)C3)C2)N1", "note": "[Example 9, 2-((3-((2-fluoro-4-(trifluoromethyl)benzyl)oxy)azetidin-1-yl)carbonyl)-2,5-diazaspiro[3.4]octan-6-one]", "values": [{"measurement": "inhibition at 10 µM", "result": 98, "unit": "%"}]}
{"smiles": "O=C1CCC2(CN(C(=O)N3CCC(Cc4ccc(C(F)(F)F)cc4)CC3)C2)N1", "note": "[Example 106, 2-((4-(4-(trifluoromethyl)benzyl)piperidin-1-yl)carbonyl)-2,5-diazaspiro[3.4]octan-6-one]", "values": [{"measurement": "inhibition at 10 µM", "result": 101, "unit": "%"}]}
{"smiles": "O=C1NC2(CO1)CN(C(=O)[C@H]1C[C@@H](OCc3ccc(Cl)c(Cl)c3)C1)C2", "note": "[Example 353, 2-((cis-3-((3,4-dichlorobenzyl)oxy)cyclobutyl)carbonyl)-7-oxa-2,5-diazaspiro[3.4]octan-6-one]", "values": [{"measurement": "inhibition at 10 µM", "result": 100, "unit": "%"}]}
